Assay results taken from PubChem BioAssay (NCI).
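48-hour exposure; five concentrations; linearly interpolated endpoints. TGI denotes the concentration required for complete inhibition of growth.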

How the values were obtained:
Test in all cases: DTP human tumour cell line panel, 48 h
OVCAR-4 ovarian = test system: OVCAR-4 ovarian
UO-31 renal = test system: UO-31 renal
SF-268 CNS = test system: SF-268 CNS
M14 melanoma = test system: M14 melanoma
HL-60(TB) leukemia = test system: HL-60(TB) leukemia
IGROV1 ovarian = test system: IGROV1 ovarian
NCI-H23 lung = test system: NCI-H23 lung
MALME-3M melanoma = test system: MALME-3M melanoma
HCT-15 colon = test system: HCT-15 colon
OVCAR-5 ovarian = test system: OVCAR-5 ovarian
BT-549 breast = test system: BT-549 breast
NCI/ADR-RES ovarian = test system: NCI/ADR-RES ovarian
SN12C renal = test system: SN12C renal
A498 renal = test system: A498 renal
SW-620 colon = test system: SW-620 colon
RXF 393 renal = test system: RXF 393 renal
PC-3 prostate = test system: PC-3 prostate
UACC-257 melanoma = test system: UACC-257 melanoma
NCI-H226 lung = test system: NCI-H226 lung

| Compound | TGI (OVCAR-4 ovarian) | TGI (UO-31 renal) | TGI (SF-268 CNS) | TGI (M14 melanoma) | TGI (HL-60(TB) leukemia) | TGI (IGROV1 ovarian) | TGI (NCI-H23 lung) | TGI (MALME-3M melanoma) | TGI (HCT-15 colon) | TGI (OVCAR-5 ovarian) | TGI (BT-549 breast) | TGI (NCI/ADR-RES ovarian) | TGI (SN12C renal) | TGI (A498 renal) | TGI (SW-620 colon) | TGI (RXF 393 renal) | TGI (PC-3 prostate) | TGI (UACC-257 melanoma) | TGI (NCI-H226 lung) |
| --- | --- | --- | --- | --- | --- | --- | --- | --- | --- | --- | --- | --- | --- | --- | --- | --- | --- | --- | --- |
| Nc1ccc2c(=O)cc(-c3cccs3)[nH]c2n1 | > 100 µM | 26.6 µM | > 100 µM | > 54.8 µM | 0.671 µM | > 100 µM | > 26.3 µM | > 100 µM | > 60.4 µM | > 100 µM | > 100 µM | 5.5 µM | > 59.7 µM | > 100 µM | > 100 µM | > 100 µM | > 28.3 µM | > 100 µM | 8.62 µM |
| c1ccc(C2=NCCN2)c(C2=NCCN2)c1 | > 100 µM | > 100 µM | > 100 µM | > 100 µM | > 100 µM | > 100 µM | > 100 µM | > 100 µM | > 100 µM | > 100 µM | > 100 µM | > 100 µM | > 100 µM | > 100 µM | > 100 µM | > 100 µM | > 100 µM | > 100 µM | > 100 µM |
| Cc1c(CCN2CCOCC2)c(N2CCOCC2)n2c(nc3ccccc32)c1C#N | > 10 µM | > 10 µM | > 10 µM | > 10 µM | > 10 µM | > 10 µM | > 10 µM | > 10 µM | > 10 µM | > 10 µM | > 10 µM | > 10 µM | > 10 µM | > 10 µM | > 10 µM | > 10 µM | > 10 µM | > 10 µM | > 10 µM |
| CC(C)(C)OCC1NC(=O)[C@@H]2Cc3c([nH]c4ccccc34)C(c3ccccc3)N2C1=O (some centres undefined) | > 50 µM | > 50 µM | > 50 µM | > 50 µM | > 50 µM | > 50 µM | > 50 µM | > 50 µM | > 50 µM | > 50 µM | > 50 µM | > 50 µM | > 50 µM | > 50 µM | > 50 µM | > 50 µM | > 50 µM | > 50 µM | > 50 µM |
| COc1ccc(-c2c3c(cc4cc5c(cc24)OCO5)C(=O)OC3)cc1OC | > 100 µM | 14.1 µM | > 48 µM | 1.16 µM | > 31.8 µM | > 100 µM | 26.5 µM | 2.92 µM | 18.3 µM | > 100 µM | 22.3 µM | 22.4 µM | > 53.1 µM | > 49.6 µM | 11.7 µM | 35.8 µM | 49.7 µM | 5.05 µM | 12.4 µM |
| O=C(N/N=C/c1c(-c2ccccc2)no[n+]1[O-])N1CCOCC1 | > 100 µM | > 100 µM | > 100 µM | > 100 µM | > 100 µM | > 100 µM | > 100 µM | > 100 µM | > 100 µM | > 100 µM | > 100 µM | > 100 µM | > 100 µM | > 100 µM | > 100 µM | > 100 µM | > 100 µM | > 100 µM | > 100 µM |
| COc1ccc(N2C(=O)[C@H]3[C@H]4CC(C(C)(C)C)CC[C@H]4c4c(n(C)c5ccccc45)[C@H]3C2=O)cc1 (some centres undefined) | > 100 µM | > 100 µM | > 100 µM | > 100 µM | > 100 µM | > 100 µM | > 100 µM | > 100 µM | > 56.2 µM | > 100 µM | > 100 µM | > 100 µM | > 56.2 µM | > 46.4 µM | > 100 µM | > 100 µM | > 100 µM | > 100 µM | > 100 µM |
| CCN(CC)CCC(=O)c1ccc(C)cc1 | 50.1 µM | 42 µM | > 100 µM | 35.8 µM | > 100 µM | 37.6 µM | 48.1 µM | 42.4 µM | 33.6 µM | 31.4 µM | 37.6 µM | 65.7 µM | > 100 µM | 67.2 µM | 36.9 µM | 31.1 µM | > 100 µM | 38.9 µM | 63.6 µM |
| COC(=O)c1ccc(NC(=O)O/N=C(\Cl)C(C)C)cc1 | 32 µM | 28.7 µM | > 78.1 µM | 12 µM | 3.66 µM | 27.6 µM | 39.3 µM | 3.48 µM | 3.49 µM | 32.8 µM | 8.94 µM | 16.7 µM | 13.9 µM | 37.6 µM | 3.77 µM | 19.6 µM | 31.1 µM | 28.6 µM | > 53.6 µM |
| C=C1C(=O)O[C@@H]2[C@@H]3O[C@@H](C[C@@H]13)[C@](C)(O)CC/C=C(\C)CCC[C@@H]2C | 29.6 µM | 23 µM | 43.9 µM | 27 µM | 10.4 µM | 22.6 µM | 28 µM | 26.8 µM | 33.4 µM | 48 µM | 27.5 µM | 38.5 µM | 25.3 µM | 26.2 µM | 38.4 µM | 30.1 µM | 22.9 µM | 27 µM | 36.1 µM |
| Nc1nc(N)c2cc(-c3ccccc3)cnc2n1 | 35.2 µM | 25.7 µM | 8.78 µM | 57.7 µM | 28.4 µM | 26.8 µM | 25.9 µM | 21.7 µM | > 100 µM | 27.7 µM | 30.2 µM | > 100 µM | 29.1 µM | 28.5 µM | 22.9 µM | 22.5 µM | 20.6 µM | 30.6 µM | 33.1 µM |
